# Read-outs that look alike come from different tables or passages of the source.
# Key:
# [1] = target: T1, human BRD4 bromodomain II (Homo sapiens, UniProt O60885); assay: Bromodomain binding assay (AlphaScreen), BRD4 BDII
# T1 construct: human BRD4 bromodomain II [based on Genbank NM_058243, residues 349-460]; host or cells: E. coli
# Procedure, shortened: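 Inhibition of acetyl-H4 peptide binding to human BRD4 bromodomains is measured by bead-based proximity (AlphaScreen) in pH 7.5 HEPES buffer containing 0.05% CHAPS and 0.1% BSA. Ten compound concentrations in 3-fold steps give competitive binding IC50s.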
# [2] = system: human SKM-1 acute myeloid leukemia cells; assay: SKM-1 antiproliferation cell-based assay (ATPlite); details: Homo sapiens
# Procedure, shortened: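 Log-phase cells in RPMI 1640/15% FBS were seeded at 34722 cells/mL and exposed for 4 days to nine-concentration DMSO serial dilutions in triplicate. Viability was read as ATP luminescence (ATPlite 1step), and IC50 values came from variable-slope non-linear regression.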
# [3] = AlphaScreen assay, Table C2, read-out: BRD4 BDII IC50
# [4] = SKM-1, 96 h, SKM-1 antiproliferation assay, 4 days, Table C2
# [5] = BRD4 BDII AlphaScreen assay, read-out: BRD4 BD2 IC50
# [6] = SKM-1, SKM-1 antiproliferation assay
Compound,"IC50 [1, 3]","GI50 [2, 4]","IC50 [1, 5]","GI50 [2, 6]"
"Cn1ccn(-c2ccc(-c3cc(F)cc(-c4ccnc(N5CCN(CC6CC6)CC5)c4)c3O)cc2Cl)c1=O [Example 470, 1-(3-chloro-3′-(2-(4-(cyclopropylmethyl)piperazin-1-yl)pyridin-4-yl)-5′-fluoro-2′-hydroxy-[1,1′-biphenyl]-4-yl)-3-methyl-1H-imidazol-2(3H)-one]",1 to 10 nM,0.3 to 30 nM,–,–
"Cn1ccn(-c2ccc(-c3cc(F)cc(-c4ccnc(N5CCN(CC6CCC6)CC5)c4)c3O)cc2Cl)c1=O [Example 646, 1-(3-chloro-3′-(2-(4-(cyclobutylmethyl)piperazin-1-yl)pyridin-4-yl)-5′-fluoro-2′-hydroxy-[1,1′-biphenyl]-4-yl)-3-methyl-1H-imidazol-2(3H)-one]",0.01 to 1 nM,0.3 to 30 nM,–,–
CC(=O)Nc1cc(-c2cc(F)cc(-c3ccc(-n4ccn(C)c4=O)c(Cl)c3)c2O)cc(N2CCN[C@H](C)C2)n1 [Example 544],0.01 to 1 nM,0.3 to 30 nM,–,–
"Cn1ccn(-c2c(Cl)cc(-c3cc(F)cc(-c4ccnc(N5CCNCC5)c4)c3O)cc2Cl)c1=O [Example 408, 1-(3,5-dichloro-5′-fluoro-2′-hydroxy-3′-(2-(piperazin-1-yl)pyridin-4-yl)-[1,1′-biphenyl]-4-yl)-3-methyl-1H-imidazol-2(3H)-one]",10 to 100 nM,300 to 3000 nM,–,–
"CC(C)N1CCN(c2cccc(-c3cc(F)cc(-c4ccc(-n5ccn(C)c5=O)c(Cl)c4)c3O)c2)CC1 [Example 699, 1-(3-chloro-5′-fluoro-2′-hydroxy-3″-(4-isopropylpiperazin-1-yl)-[1,1′:3′,1″-terphenyl]-4-yl)-3-methyl-1H-imidazol-2(3H)-one]",0.01 to 1 nM,0.3 to 30 nM,–,–
C[C@@H]1CN(c2cc(-c3cc(F)cc(-c4ccc(-n5ccn(C)c5=O)c(Cl)c4)c3O)cc3c2cnn3C)CCN1 [Example 580],0.01 to 1 nM,0.3 to 30 nM,–,–
Cn1ccn(-c2ccc(-c3cc(F)cc(-c4cccc(-c5cccc(O)c5)c4)c3O)cc2Cl)c1=O [Example 864],–,–,10 to 100 nM,300 to 3000 nM
"CC#Cc1ncc(-c2cc(F)cc(-c3ccc(N4CCN(C)C4=O)c(Cl)c3)c2O)cc1N1CCNCC1 [Example 403, 1-(3-chloro-5′-fluoro-2′-hydroxy-3′-(5-(piperazin-1-yl)-6-(prop-1-yn-1-yl)pyridin-3-yl)-[1,1′-biphenyl]-4-yl)-3-methylimidazolidin-2-one]",1 to 10 nM,0.3 to 30 nM,–,–
"CC(=O)Nc1ccc(-c2cccc(-c3ccnc(N4CC5(CNC5)C4)c3)c2O)cc1Cl [Example 283, N-(3′-(2-(2,6-diazaspiro[3.3]heptan-2-yl)pyridin-4-yl)-3-chloro-2′-hydroxy-[1,1′-biphenyl]-4-yl)acetamide]",10 to 100 nM,300 to 3000 nM,–,–
"CC[C@]1(O)CCN(c2cc(-c3cc(F)cc(-c4ccc(-n5ccn(C)c5=O)c(Cl)c4)c3O)ccn2)C1 [Example 819, (S)-1-(3-chloro-3′-(2-(3-ethyl-3-hydroxypyrrolidin-1-yl)pyridin-4-yl)-5′-fluoro-2′-hydroxy-[1,1′-biphenyl]-4-yl)-3-methyl-1H-imidazol-2(3H)-one]",1 to 10 nM,30 to 300 nM,–,–
COc1ncc(-c2cc(F)cc(-c3ccc(-n4ccn(C)c4=O)c(Cl)c3)c2O)cc1N1CCN(C2CCOC2)CC1 (stereo not drawn) [Example 869],–,–,1 to 10 nM,0.3 to 30 nM
"CN1CCN(c2ccc(-c3cc(F)cc(-c4cc(C5=CCNCC5)cn(C)c4=O)c3O)cc2Cl)C1=O [Example 401, 5-(3′-chloro-5-fluoro-2-hydroxy-4′-(3-methyl-2-oxoimidazolidin-1-yl)-[1,1′-biphenyl]-3-yl)-1-methyl-1′,2′,3′,6′-tetrahydro-[3,4′-bipyridin]-6(1H)-one]",> 100 nM,300 to 3000 nM,–,–
"Cc1cc(-c2ccc(-n3ccn(C)c3=O)c(Cl)c2)c(O)c(-c2cnc(N(C)C)c(N3CCC4(CCCN4C(C)C)C3)c2)n1 (stereo not drawn) [Example 994, 1-(2-Chloro-4-(6′-(dimethylamino)-3-hydroxy-5′-(1-isopropyl-1,7-diazaspiro[4.4]nonan-7-yl)-6-methyl-[2,3′-bipyridin]-4-yl)phenyl)-3-methyl-1H-imidazol-2(3H)-one]",–,–,1 to 10 nM,0.3 to 30 nM
"Cn1ccn(-c2ccc(-c3cc(F)cc(-c4ccnc(N5CCC(O)(C6CC6)C5)c4)c3O)cc2Cl)c1=O (stereo not drawn) [Example 718, 1-(3-chloro-3′-(2-(3-cyclopropyl-3-hydroxypyrrolidin-1-yl)pyridin-4-yl)-5′-fluoro-2′-hydroxy-[1,1′-biphenyl]-4-yl)-3-methyl-1H-imidazol-2(3H)-one]",0.01 to 1 nM,0.3 to 30 nM,–,–
"C#CCN1CCN(c2cc(-c3cc(F)cc(-c4ccc(-n5ccn(C)c5=O)c(Cl)c4)c3O)ccn2)CC1 [Example 669, 1-(3-chloro-5′-fluoro-2′-hydroxy-3′-(2-(4-(prop-2-yn-1-yl)piperazin-1-yl)pyridin-4-yl)-[1,1′-biphenyl]-4-yl)-3-methyl-1H-imidazol-2(3H)-one]",0.01 to 1 nM,30 to 300 nM,–,–
"C[C@@H]1CN(c2cc(-c3cccc(-c4ccc(N5CCN(C)C5=O)c(F)c4)c3O)ccn2)CCN1 [Example 289, (R)-1-(3-fluoro-2′-hydroxy-3′-(2-(3-methylpiperazin-1-yl)pyridin-4-yl)-[1,1′-biphenyl]-4-yl)-3-methylimidazolidin-2-one]",1 to 10 nM,30 to 300 nM,–,–

# Further lines, results first:
"IC50 [1, 3]","GI50 [2, 4]","IC50 [1, 5]","GI50 [2, 6]",Compound
0.01 to 1 nM,30 to 300 nM,–,–,"Cn1ccn(-c2ccc(-c3cc(F)cc(-c4ccnc(N5CC6CCC(C5)C6(C)N)c4)c3O)cc2Cl)c1=O (stereo not drawn) [Example 757, 1-(3′-(2-(8-amino-8-methyl-3-azabicyclo[3.2.1]octan-3-yl)pyridin-4-yl)-3-chloro-5′-fluoro-2′-hydroxy-[1,1′-biphenyl]-4-yl)-3-methyl-1H-imidazol-2(3H)-one]"
> 100 nM,≥ 3000 nM,–,–,"O=C1CCC(=O)N1c1ccc(-c2cccc(-c3cncc(N4CCNCC4)c3)c2O)cc1F [Example 257, 1-(3-fluoro-2′-hydroxy-3′-(5-(piperazin-1-yl)pyridin-3-yl)-[1,1′-biphenyl]-4-yl)pyrrolidine-2,5-dione]"
–,–,1 to 10 nM,0.3 to 30 nM,"Cc1cc(-c2ccc(-n3ccn(C)c3=O)c(Cl)c2)c(O)c(-c2cc(Cl)cc(N3CCN(C(C)(C)C)CC3)c2)n1 [Example 999, 1-(4-(2-(3-(4-(tert-butyl)piperazin-1-yl)-5-chlorophenyl)-3-hydroxy-6-methylpyridin-4-yl)-2-chlorophenyl)-3-methyl-1H-imidazol-2(3H)-one]"
0.01 to 1 nM,0.3 to 30 nM,–,–,"Cn1ccn(-c2ccc(-c3cc(F)cc(-c4cc(F)cc(N5CCN(C(C)(C)C)CC5)c4)c3O)cc2Cl)c1=O [Example 754, 1-(3″-(4-(tert-butyl)piperazin-1-yl)-3-chloro-5′,5″-difluoro-2′-hydroxy-[1,1′:3′,1″-terphenyl]-4-yl)-3-methyl-1H-imidazol-2(3H)-one]"
1 to 10 nM,30 to 300 nM,–,–,"Cn1ccn(-c2ccc(-c3cc(F)cc(-c4ccnc(N5CC6CCC(C5)C6(C)O)c4)c3O)cc2Cl)c1=O (stereo not drawn) [Example 785, 1-(3-chloro-5′-fluoro-2′-hydroxy-3′-(2-(8-hydroxy-8-methyl-3-azabicyclo[3.2.1]octan-3-yl)pyridin-4-yl)-[1,1′-biphenyl]-4-yl)-3-methyl-1H-imidazol-2(3H)-one]"
0.01 to 1 nM,0.3 to 30 nM,–,–,"C[C@@H]1CN(c2cc(-c3cc(F)cc(-c4ccc(-n5ccn(C)c5=O)c(Cl)c4)c3O)cn(C)c2=O)CCN1 [Example 432, (R)-5-(3′-chloro-5-fluoro-2-hydroxy-4′-(3-methyl-2-oxo-2,3-dihydro-1H-imidazol-1-yl)-[1,1′-biphenyl]-3-yl)-1-methyl-3-(3-methylpiperazin-1-yl)pyridin-2(1H)-one]"
0.01 to 1 nM,0.3 to 30 nM,–,–,Cn1ccn(-c2ccc(-c3cc(F)cc(-c4ccnc(N5CC6(CC6)[C@@](C)(O)C5)c4)c3O)cc2Cl)c1=O [Example 816]
1 to 10 nM,0.3 to 30 nM,–,–,"Cc1cc(-c2cc(F)cc(-c3ccc(-n4ccn(C)c4=O)c(Cl)c3)c2O)cc(N2CCN(C(C)C)CC2)n1 [Example 703, 1-(3-chloro-5′-fluoro-2′-hydroxy-3′-(2-(4-isopropylpiperazin-1-yl)-6-methylpyridin-4-yl)-[1,1′-biphenyl]-4-yl)-3-methyl-1H-imidazol-2(3H)-one]"
1 to 10 nM,0.3 to 30 nM,–,–,"C[C@@H]1CN(c2cc(-c3cc(F)cc(-c4ccc(-n5ccn(C)c5=O)c(Cl)c4)c3O)cc3[nH]cnc23)CCN1 [Example 522, (R)-1-(3-chloro-5′-fluoro-2′-hydroxy-3′-(4-(3-methylpiperazin-1-yl)-1H-benzo[d]imidazol-6-yl)-[1,1′-biphenyl]-4-yl)-3-methyl-1H-imidazol-2(3H)-one]"
0.01 to 1 nM,0.3 to 30 nM,–,–,"CCN1CCN(c2cc(-c3cc(F)cc(-c4ccc(-n5ccn(C)c5=O)c(Cl)c4)c3O)ccn2)CC1 [Example 469, 1-(3-chloro-3′-(2-(4-ethylpiperazin-1-yl)pyridin-4-yl)-5′-fluoro-2′-hydroxy-[1,1′-biphenyl]-4-yl)-^3-methyl-1H-imidazol-2(3H)-one]"
–,–,1 to 10 nM,0.3 to 30 nM,"COc1ncc(-c2cc(F)cc(-c3ccc(-n4ccn(C)c4=O)c(Cl)c3)c2O)cc1N1CCN(C(C)(C)CO)CC1 [Example 960, 1-(3-chloro-5′-fluoro-2′-hydroxy-3′-(5-(4-(1-hydroxy-2-methylpropan-2-yl)piperazin-1-yl)-6-methoxypyridin-3-yl)-[1,1′-biphenyl]-4-yl)-3-methyl-1H-imidazol-2(3H)-one]"
